Measured values taken from US9776989B2, “Chromone alkaloid dysoline for the treatment of cancer and inflammatory disorders” (Council of Scientific & Industrial Research, priority 2013, dated 2017).

Legend:
HT1080 (fibrosarcoma) = experiment: MTT cell viability assay, HT1080; assay type: cell-based; settings: 48 h treatment
Protocol: (§1) Anticancer activity of dysoline (1) along with rohitukine was evaluated using MTT cell viability assay on […] cancer cell lines viz. Colo205 (colon), HCT116 (colon), HT1080 (fibrosarcoma), NCIH322 (lung), A549 (lung), Molt-4 (leukemia) and HL60 (leukemia).
(§2) The cell were originated from The European Collection of Cell Cultures (ECACC, UK) and purchased through Sigma-Aldrich India.
(§3) The MTT assay was used to assess the effect of the test molecules on cell viability. Cell viability on eight cell lines viz. Colo205 (colon), HCT116 (colon), HT1080 (fibrosarcoma), NCIH322 (lung), A549 (lung), Molt-4 (leukemia) and HL60 (leukemia) was investigated. In each well of a 96-well plate, 3×10^3 cells were grown in 100 μL of medium. After 24 h, each test molecules were added to achieve a final concentration of 10 to 0.01 μmol/L, respectively. After 48 h of treatment, 20 μL of 2.5 mg/mL MTT (Organics Research, Inc.) solution in phosphate buffer saline was added to each well. After […], supernatant was removed and formazan crystals were dissolved in 200 μL of DMSO. Absorbance was then measured at 570 nm using an absorbance plate reader (Bio-Rad Microplate Reader). Data are expressed as the percentage of viable cells in treated relative to non-treated conditions. Each experiment was repeated thrice and data was expressed as mean±SD of three independent experiments (Mol. Cancer Ther. 2010, 9, 358-368).

Molt-4 (leukemia) = experiment: MTT cell viability assay, MOLT-4; assay type: cell-based; settings: Homo sapiens, 48 h treatment
Protocol: as §1, §2, §3

Colo205 (colon) = experiment: MTT cell viability assay, Colo205; assay type: cell-based; settings: Homo sapiens, COLO 205, 48 h treatment
Protocol: as §1, §2, §3

IL-6 = experiment: Inhibition of IL-6 production in splenocytes (ELISA); assay type: cell-based, male Balb/c mice; settings: Splenocyte, mouse splenocytes, Con A or LPS, 72 h, read-out: Percentage inhibition of cytokine production, IL-6
Protocol: (§4) Anti-inflammatory activity of dysoline (1) was evaluated by inhibiting production of pro-inflammatory cytokines such as tumor necrosis factor-alpha (TNF-α) and interleukin-6 (IL-6). […] The TNF-α inhibition activity of dysoline was compared with rohitukine.
(§5) Splenocytes of male Balb/c mice were seeded into three to four wells of a 96-well flat-bottom microtiter plate (Nunc) at 2×10^6 cells/ml. Cells were incubated with different concentrations of dysoline (0.01 μM-100 μM) along with Con A (2.5 μg/well) or LPS (1 μg/ml) for 72 h at 37° C. with 5% CO2 in CO2 incubator. The culture supernatants were harvested and the measurement of cytokines (TNF-α and IL-6) in the culture supernatants was carried out using commercial kits as per manufacturer's instructions by using ELISA kits (R&D, USA) (Life Sci. 2007, 80, 1525-1538; J. Immunol. Methods 1983, 65, 55-63).

Stability = assay type: physicochemical
A549 (lung) = experiment: MTT cell viability assay, A549; assay type: cell-based; settings: Homo sapiens, 48 h treatment
Protocol: as §1, §2, §3

HCT116 (colon) = experiment: MTT cell viability assay, HCT116; assay type: cell-based; settings: Homo sapiens, HCT-116, 48 h treatment
Protocol: as §1, §2, §3

NCIH322 (lung) = experiment: MTT cell viability assay, NCIH322; assay type: cell-based; settings: NCI-H322, 48 h treatment
Protocol: as §1, §2, §3

Water solubility = assay type: physicochemical
TNF-α = experiment: Inhibition of TNF-α production in splenocytes (ELISA); assay type: cell-based, male Balb/c mice; settings: 72 h, Con A or LPS; for inhibition at 0.01 µM / inhibition at 0.1 µM / inhibition at 1 µM / inhibition at 10 µM / inhibition at 100 µM: Mus musculus, Splenocyte, read-out: Percentage inhibition of cytokine production, TNF-α
Protocol: as §4, §5

HL60 (leukemia) = experiment: MTT cell viability assay, HL-60; assay type: cell-based; settings: Homo sapiens, HL-60 (leukemia), 48 h treatment
Protocol: as §1, §2, §3

[1] = test system: HL-60 promyelocytic leukemia; settings: human HL-60 promyelocytic leukemia; cited from earlier work
[2] = test system: HCT-116 colon cancer cells; settings: cited from earlier work

Compound `Cc1cc(=O)c2c(O)c(C3CCN(C)CC3O)c(O)cc2o1` (centres unmarked) [Dysoline (1), 5,7-dihydroxy-6-(3-hydroxy-1-methylpiperidin-4-yl)-2-methyl-4H-chromen-4-one] has an IC50 (HT1080 (fibrosarcoma); Homo sapiens, HT-1080, 48 h) of 0.21 µM, an IC50 (Molt-4 (leukemia)) greater than 10 µM and an IC50 (Colo205 (colon)) greater than 10 µM. The inhibition at 0.01 µM (IL-6) was 72%, the inhibition at 0.1 µM (IL-6) was 83% and the inhibition at 1 µM (IL-6) was 83%. It also gave an inhibition at 10 µM (IL-6) of 89%, an inhibition at 100 µM (IL-6) of 99% and a melting point of 310 to 315 °C. For the same compound, the stability (Stability) was “stable”, the IC50 (A549 (lung)) was greater than 10 µM and the IC50 (HCT116 (colon)) was greater than 10 µM. The IC50 (NCIH322 (lung)) was greater than 10 µM, the water solubility (Water solubility) was “good water solubility” and the inhibition at 0.01 µM (TNF-α) was 28%. For the same compound, the inhibition at 0.1 µM (TNF-α) was 47%, the inhibition at 1 µM (TNF-α; 1 μM) was 53% and the inhibition at 10 µM (TNF-α) was 54%. It also gave an inhibition at 100 µM (TNF-α) of 56% and an IC50 (HL60 (leukemia)) of 10 µM.
In the case of `Cc1cc(=O)c2c(O)cc(O)c([C@H]3CCN(C)C[C@H]3O)c2o1` [Rohitukine, 5,7-dihydroxy-2-methyl-8-[4-(3-hydroxy-1-methyl)-piperidinyl]-4H-1-benzopyran-4-one], the cytotoxicity [1] is given as “moderate cytotoxicity”, the IC50 (HT1080 (fibrosarcoma)) is given as greater than 10 µM and the IC50 (HT1080 (fibrosarcoma); Homo sapiens, HT-1080, 48 h) is given as less than 10 µM. For the same compound, the IC50 (Molt-4 (leukemia)) was greater than 10 µM, the IC50 (Colo205 (colon)) was greater than 10 µM and the cytotoxicity [2] was “moderate cytotoxicity”. For the same compound, the inhibition at 0.01 µM (IL-6) was 10%, the inhibition at 0.1 µM (IL-6) was 30% and the inhibition at 1 µM (IL-6) was 80%. It also gave an inhibition at 10 µM (IL-6) of 88%, an inhibition at 100 µM (IL-6) of 89% and an IC50 (A549 (lung)) greater than 10 µM. The IC50 (HCT116 (colon)) was greater than 10 µM, the IC50 (NCIH322 (lung)) was greater than 10 µM and the “Percentage inhibition of cytokine production, TNF-α” value (TNF-α; 1 μM, mouse splenocytes) was 28%. It also gave an inhibition at 0.01 µM (TNF-α) of 18%, an inhibition at 0.1 µM (TNF-α) of 22% and an inhibition at 1 µM (TNF-α; 1 μM) of 32%. For the same compound, the inhibition at 10 µM (TNF-α) was 32%, the inhibition at 100 µM (TNF-α) was 47% and the IC50 (HL60 (leukemia)) was 10 µM.
